Data from patent publication US12466812B2, “Pyridinyltriazine derivative having protein kinase inhibitory activity, and pharmaceutical composition for preventing, ameliorating, or treating cancer comprising same” (KOREA INSTITUTE OF SCIENCE AND TECHNOLOGY, priority 2019, dated 2025).

How the values were obtained:
[1] = test system: UMUC3, bladder cancer cell line overexpressing FGFR1 (xenograft); assay: In-vivo efficacy in animal model transplanted with bladder cancer cell line; details: UMUC3 xenograft in BALB/C nude mice, oral 20 mpk once a day, compared to control drug BGJ398
Description: Specifically, 6-7 week old BALB/C nude mice xenografted with UMUC3, which was a bladder cancer cell line overexpressing FGFR1, were used as an animal model. BGJ398 (manufactured by Novartis), a known FGFR inhibitor, was used as a control drug. A mixed solution (pH=4) of 5% N-methylpyrrolidinone (NMP), 6% Solutol, 20% polyethylene glycol (PEG400), and 69′% distilled water was used as a vehicle. At this time, the drug was orally administered at a concentration of 20 mpk (mg/kg) once a day.

FGFR2 = FGFR2 (Homo sapiens, UniProt P21802); assay: Kinase panel biochemical assay; details: single concentration of 1 μM; panel of 369 kinases; read-out: kinase activity inhibited (%), FGFR2
Chain of FGFR2 (P21802 22-821): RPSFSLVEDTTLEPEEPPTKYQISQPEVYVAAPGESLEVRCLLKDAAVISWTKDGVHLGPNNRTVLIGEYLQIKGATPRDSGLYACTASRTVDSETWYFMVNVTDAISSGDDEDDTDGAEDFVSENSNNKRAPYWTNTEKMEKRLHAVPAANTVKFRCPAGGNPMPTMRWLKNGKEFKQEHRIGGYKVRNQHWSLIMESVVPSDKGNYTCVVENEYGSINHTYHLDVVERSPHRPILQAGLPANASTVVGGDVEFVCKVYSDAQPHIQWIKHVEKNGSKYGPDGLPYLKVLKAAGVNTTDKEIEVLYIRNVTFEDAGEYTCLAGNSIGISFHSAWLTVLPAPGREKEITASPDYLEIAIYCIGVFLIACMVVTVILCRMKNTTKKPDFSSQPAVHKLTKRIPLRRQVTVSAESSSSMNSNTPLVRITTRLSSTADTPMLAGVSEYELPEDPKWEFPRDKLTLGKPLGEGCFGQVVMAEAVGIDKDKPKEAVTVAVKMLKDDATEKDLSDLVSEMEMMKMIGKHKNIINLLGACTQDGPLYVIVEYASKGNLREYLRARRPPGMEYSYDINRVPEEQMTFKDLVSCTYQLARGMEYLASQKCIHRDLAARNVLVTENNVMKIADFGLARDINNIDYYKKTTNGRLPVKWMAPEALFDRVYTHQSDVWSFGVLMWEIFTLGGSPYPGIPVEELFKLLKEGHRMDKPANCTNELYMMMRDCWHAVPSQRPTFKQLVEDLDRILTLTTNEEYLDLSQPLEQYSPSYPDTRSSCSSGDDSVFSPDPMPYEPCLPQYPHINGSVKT
Description: (§1) In order to measure the inhibitory activity (%) against protein kinases of the compounds of the present invention, biochemical assays were performed on a full kinase panel composed of 369 kinases.

PCTAIRE2 = PCTAIRE2 (Homo sapiens, UniProt Q00537); assay: Kinase panel biochemical assay; details: single concentration of 1 μM; panel of 369 kinases; read-out: kinase activity inhibited (%), PCTAIRE2
Description: as §1

FGFR4 = FGFR4 (Homo sapiens, UniProt P22455); assay: Kinase panel biochemical assay; details: single concentration of 1 μM; panel of 369 kinases; read-out: kinase activity inhibited (%), FGFR4
Chain of FGFR4 (P22455 22-802): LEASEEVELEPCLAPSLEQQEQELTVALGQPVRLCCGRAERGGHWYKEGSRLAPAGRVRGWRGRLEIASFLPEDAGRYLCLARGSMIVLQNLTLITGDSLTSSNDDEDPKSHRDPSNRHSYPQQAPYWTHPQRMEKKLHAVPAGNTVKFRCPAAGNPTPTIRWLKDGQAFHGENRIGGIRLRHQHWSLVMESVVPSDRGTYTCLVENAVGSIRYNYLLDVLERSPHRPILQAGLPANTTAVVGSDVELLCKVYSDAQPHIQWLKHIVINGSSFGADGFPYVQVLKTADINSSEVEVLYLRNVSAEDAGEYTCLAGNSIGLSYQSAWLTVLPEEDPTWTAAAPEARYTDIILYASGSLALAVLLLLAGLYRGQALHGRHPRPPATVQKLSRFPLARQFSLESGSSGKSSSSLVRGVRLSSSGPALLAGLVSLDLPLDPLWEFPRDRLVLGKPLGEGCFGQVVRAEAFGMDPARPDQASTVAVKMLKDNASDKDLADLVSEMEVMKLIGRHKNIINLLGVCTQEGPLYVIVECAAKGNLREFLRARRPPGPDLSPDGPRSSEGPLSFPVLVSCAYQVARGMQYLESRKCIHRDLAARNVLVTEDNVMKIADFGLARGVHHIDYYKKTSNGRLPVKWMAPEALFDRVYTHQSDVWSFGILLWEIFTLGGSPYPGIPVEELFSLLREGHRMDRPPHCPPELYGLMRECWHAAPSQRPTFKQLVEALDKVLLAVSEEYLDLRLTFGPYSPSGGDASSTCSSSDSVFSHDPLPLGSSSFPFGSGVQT
Description: as §1

DDR1 = DDR1 (Homo sapiens, UniProt Q08345); assay: Kinase panel biochemical assay; details: single concentration of 1 μM; panel of 369 kinases; read-out: kinase activity inhibited (%), DDR1
Chain of DDR1 (Q08345 19-913): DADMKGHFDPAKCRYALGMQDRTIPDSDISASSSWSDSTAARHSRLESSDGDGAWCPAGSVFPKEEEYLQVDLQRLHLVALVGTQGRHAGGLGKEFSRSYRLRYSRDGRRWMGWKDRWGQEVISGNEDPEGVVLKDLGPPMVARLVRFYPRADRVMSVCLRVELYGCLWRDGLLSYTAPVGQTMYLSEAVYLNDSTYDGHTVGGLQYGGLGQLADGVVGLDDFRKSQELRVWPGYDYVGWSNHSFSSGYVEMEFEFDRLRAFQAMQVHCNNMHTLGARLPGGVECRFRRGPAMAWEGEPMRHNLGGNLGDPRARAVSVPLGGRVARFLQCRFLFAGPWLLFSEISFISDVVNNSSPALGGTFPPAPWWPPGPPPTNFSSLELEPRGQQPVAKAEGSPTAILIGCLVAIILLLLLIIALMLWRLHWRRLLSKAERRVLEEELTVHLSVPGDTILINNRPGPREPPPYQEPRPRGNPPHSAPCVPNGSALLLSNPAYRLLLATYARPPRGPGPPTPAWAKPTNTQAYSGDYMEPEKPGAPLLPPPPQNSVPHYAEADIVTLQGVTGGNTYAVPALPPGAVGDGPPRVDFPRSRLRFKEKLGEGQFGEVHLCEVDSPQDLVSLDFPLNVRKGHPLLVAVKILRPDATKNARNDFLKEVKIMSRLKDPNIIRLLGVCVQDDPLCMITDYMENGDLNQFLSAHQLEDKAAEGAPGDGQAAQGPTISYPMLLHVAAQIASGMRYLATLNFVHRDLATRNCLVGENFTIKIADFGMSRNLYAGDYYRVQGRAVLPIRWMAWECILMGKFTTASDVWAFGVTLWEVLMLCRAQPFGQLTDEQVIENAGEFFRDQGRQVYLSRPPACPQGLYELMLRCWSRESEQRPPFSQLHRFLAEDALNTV
Description: as §1

LYN = LYN (Homo sapiens, UniProt P07948); assay: Kinase panel biochemical assay; details: single concentration of 1 μM; panel of 369 kinases; read-out: kinase activity inhibited (%), LYN
Chain of LYN (P07948 whole entry): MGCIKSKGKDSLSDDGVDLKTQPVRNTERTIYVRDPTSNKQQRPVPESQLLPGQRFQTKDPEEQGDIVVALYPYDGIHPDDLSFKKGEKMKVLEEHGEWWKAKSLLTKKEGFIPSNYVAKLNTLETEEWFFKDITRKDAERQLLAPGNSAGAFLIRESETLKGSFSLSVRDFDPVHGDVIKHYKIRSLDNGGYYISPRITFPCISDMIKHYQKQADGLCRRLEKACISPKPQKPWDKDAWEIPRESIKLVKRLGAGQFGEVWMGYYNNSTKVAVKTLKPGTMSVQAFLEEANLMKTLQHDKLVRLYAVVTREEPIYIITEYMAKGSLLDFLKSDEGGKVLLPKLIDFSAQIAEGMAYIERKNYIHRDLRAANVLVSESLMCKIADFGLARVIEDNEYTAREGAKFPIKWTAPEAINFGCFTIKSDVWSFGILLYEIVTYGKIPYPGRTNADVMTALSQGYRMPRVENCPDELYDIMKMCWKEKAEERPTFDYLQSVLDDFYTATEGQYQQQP
Description: as §1

CDK4 = CDK4 (Homo sapiens, UniProt P11802); assay: Kinase panel biochemical assay; details: single concentration of 1 μM; panel of 369 kinases; read-out: kinase activity inhibited (%), CDK4
Chain of CDK4 (P11802 whole entry): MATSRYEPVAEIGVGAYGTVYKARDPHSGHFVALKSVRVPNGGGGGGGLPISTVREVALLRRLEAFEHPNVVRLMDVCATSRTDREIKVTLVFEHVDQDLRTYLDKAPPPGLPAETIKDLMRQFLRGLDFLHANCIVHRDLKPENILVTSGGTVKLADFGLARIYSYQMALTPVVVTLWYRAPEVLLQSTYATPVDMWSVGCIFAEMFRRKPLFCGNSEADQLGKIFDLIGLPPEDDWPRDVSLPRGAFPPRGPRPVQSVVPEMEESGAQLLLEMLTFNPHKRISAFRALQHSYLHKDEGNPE
Chain of CDK4 (P24385 whole entry partner): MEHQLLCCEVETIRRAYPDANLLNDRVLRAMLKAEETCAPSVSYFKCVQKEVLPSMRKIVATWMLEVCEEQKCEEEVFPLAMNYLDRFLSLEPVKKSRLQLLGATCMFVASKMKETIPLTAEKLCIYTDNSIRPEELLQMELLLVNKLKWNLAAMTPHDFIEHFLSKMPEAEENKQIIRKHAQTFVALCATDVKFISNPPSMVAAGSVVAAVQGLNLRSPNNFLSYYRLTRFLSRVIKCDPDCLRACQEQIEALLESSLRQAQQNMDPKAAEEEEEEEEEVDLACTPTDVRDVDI
Description: as §1

MAK = MAK (Homo sapiens, UniProt P20794); assay: Kinase panel biochemical assay; details: single concentration of 1 μM; panel of 369 kinases; read-out: kinase activity inhibited (%), MAK
Chain of MAK (P20794 whole entry): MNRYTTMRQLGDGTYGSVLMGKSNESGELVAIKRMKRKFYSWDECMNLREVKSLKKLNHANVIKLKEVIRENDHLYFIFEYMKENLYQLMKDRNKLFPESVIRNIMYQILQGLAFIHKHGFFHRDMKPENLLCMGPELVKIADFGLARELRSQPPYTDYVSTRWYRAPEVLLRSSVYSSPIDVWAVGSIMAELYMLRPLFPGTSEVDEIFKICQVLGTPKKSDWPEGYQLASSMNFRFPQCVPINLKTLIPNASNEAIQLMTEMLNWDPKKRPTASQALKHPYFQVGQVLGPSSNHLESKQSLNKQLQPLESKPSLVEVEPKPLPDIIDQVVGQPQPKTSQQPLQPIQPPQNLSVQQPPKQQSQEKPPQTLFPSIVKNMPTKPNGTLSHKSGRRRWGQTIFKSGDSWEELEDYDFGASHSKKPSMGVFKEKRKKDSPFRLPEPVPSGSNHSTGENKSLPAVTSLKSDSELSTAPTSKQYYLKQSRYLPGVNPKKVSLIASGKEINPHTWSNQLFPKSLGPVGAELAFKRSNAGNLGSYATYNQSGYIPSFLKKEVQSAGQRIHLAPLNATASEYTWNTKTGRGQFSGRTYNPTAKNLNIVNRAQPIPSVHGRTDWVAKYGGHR
Description: as §1

LCK = LCK (Homo sapiens, UniProt P06239); assay: Kinase panel biochemical assay; details: single concentration of 1 μM; panel of 369 kinases; read-out: kinase activity inhibited (%), LCK
Chain of LCK (P06239 whole entry): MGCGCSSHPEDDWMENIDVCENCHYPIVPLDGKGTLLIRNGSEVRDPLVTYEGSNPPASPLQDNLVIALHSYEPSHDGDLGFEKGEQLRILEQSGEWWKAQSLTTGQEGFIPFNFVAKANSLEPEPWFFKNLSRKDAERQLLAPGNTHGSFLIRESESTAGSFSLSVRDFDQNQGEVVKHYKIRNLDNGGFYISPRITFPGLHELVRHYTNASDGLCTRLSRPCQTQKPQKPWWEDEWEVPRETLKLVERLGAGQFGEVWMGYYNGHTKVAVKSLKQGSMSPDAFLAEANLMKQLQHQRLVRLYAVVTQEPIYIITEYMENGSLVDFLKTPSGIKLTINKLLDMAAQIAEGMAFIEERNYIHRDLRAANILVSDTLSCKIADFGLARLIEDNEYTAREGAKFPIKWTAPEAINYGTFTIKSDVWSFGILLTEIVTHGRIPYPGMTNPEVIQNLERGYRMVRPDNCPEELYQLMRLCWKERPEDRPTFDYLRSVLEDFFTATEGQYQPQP
Description: as §1

inhibition at 1 µM (FGFR2): ≥ 90%
inhibition at 1 µM (PCTAIRE2): ≥ 90%
inhibition at 1 µM (FGFR4): ≥ 90%
inhibition at 1 µM (DDR1): ≥ 90%
inhibition at 1 µM (LYN): ≥ 90%
inhibition at 1 µM (CDK4): ≥ 90%
inhibition at 1 µM (MAK): ≥ 90%
inhibition at 1 µM (LCK): ≥ 90%
Compound: CCN1CCN(c2ccc(Nc3ncnc(-c4cccnc4Nc4c(Cl)c(OC)cc(OC)c4Cl)n3)cc2)CC1 [Example 1]
tumor volume reduction effect [1]: excellent tumor volume reduction effect
